Results published in US10016519B2, “18F-tagged inhibitors of prostate specific membrane antigen (PSMA), their use as imaging agents and pharmaceutical agents for the treatment of prostate cancer” (DEUTSCHES KREBSFORSCHUNGSZENTRUM, priority 2014, dated 2018).

Tests used:
LNCaP cells = assay: Specific cell uptake and internalization; format: cell-based, human; details: for Internalized fraction: (Internalized activity/total activity)*100, LNCaP cells; for Cell surface / Internalised: LNCaP cells, 30 nM 18F-labeled compound, 45 min, 37° C., specific (blocking with 500 μM PMPA), mean±SD n=3
Procedure: FIG. 8: Internalization of compounds PSMA1001/1002/1003. All compounds were labeled with ^18F, and their specific cell surface binding and internalization properties on LNCaP cells were investigated. Specific cell uptake was determined by blocking with 500 μM-PMPA. Values are expressed as % of applied radioactivity bound to 10^5 cells. Data are expressed as mean±SD (n=3).
(§1) For binding studies and in vivo experiments LNCaP cells (metastatic lesion of human prostatic adenocarcinoma, ATCC CRL-1740) were cultured in RPMI medium supplemented with 10% fetal calf serum and Glutamax (PAA, Austria). During cell culture, cells were grown at 37° C. in an incubator with humidified air, equilibrated with 5% CO2. The cells were harvested using trypsin-ethylenediaminetetraacetic acid (trypsin-EDTA; 0.25% trypsin, 0.02% EDTA, all from PAA, Austria) and washed with PBS.
To determine the specific cell uptake and internalization, 10^5 cells were seeded in poly-L-lysine coated 24-well cell culture plates 24 h before incubation. After washing, the cells were incubated with 30 nM of the radiolabeled compounds for 45 min at 37° C. Specific cellular uptake was determined by competitive blocking with 2-(phosphonomethyl)pentanedioic acid (500 μM final concentration, PMPA, Axxora, Loerrach, Germany). Cellular uptake was terminated by washing 3 times with 1 mL of ice-cold PBS. Cells were subsequently incubated twice with 0.5 mL glycine-HCl in PBS (50 mM, pH=2.8) for 5 min to remove the surface-bound fraction. The cells were washed with 1 mL of ice-cold PBS and lysed using 0.3 N NaOH (0.5 mL). The surface-bound and the internalized fractions were measured in a gamma counter. The cell uptake was calculated as percent of the initially added radioactivity bound to 10^5 cells [% ID/10^5 cells].

PSMA = target: T1, PSMA (Homo sapiens, UniProt Q04609); assay: Competitive cell binding assay (binding affinity); details: LNCaP cells, competition against 68Ga-labeled [Glu-urea-lys(Ahx)]2-HBED-CC radioligand, 0-5000 nM analyte
T1 construct: host or cells: LNCaP
T1 sequence (Q04609 whole entry): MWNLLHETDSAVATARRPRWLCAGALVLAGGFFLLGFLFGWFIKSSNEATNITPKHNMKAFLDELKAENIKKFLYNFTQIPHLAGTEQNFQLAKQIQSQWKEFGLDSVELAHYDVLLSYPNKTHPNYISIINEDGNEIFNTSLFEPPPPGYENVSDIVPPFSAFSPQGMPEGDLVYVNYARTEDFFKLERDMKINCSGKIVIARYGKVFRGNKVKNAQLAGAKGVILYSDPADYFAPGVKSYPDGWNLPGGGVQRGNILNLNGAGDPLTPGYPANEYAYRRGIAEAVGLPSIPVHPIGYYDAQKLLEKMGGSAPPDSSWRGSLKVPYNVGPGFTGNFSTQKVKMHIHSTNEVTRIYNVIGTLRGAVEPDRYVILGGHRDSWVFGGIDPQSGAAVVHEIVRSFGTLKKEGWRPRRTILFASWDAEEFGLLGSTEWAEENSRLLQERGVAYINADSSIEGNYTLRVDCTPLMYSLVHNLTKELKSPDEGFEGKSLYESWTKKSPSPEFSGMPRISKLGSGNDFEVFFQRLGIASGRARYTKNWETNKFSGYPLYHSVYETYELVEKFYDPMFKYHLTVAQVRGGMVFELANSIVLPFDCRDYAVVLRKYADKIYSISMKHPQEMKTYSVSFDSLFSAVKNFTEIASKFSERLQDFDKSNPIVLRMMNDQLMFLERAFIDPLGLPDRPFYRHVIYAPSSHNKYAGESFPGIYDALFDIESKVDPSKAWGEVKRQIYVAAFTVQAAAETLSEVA
Procedure: as §1
The competitive cell binding assay and internalization experiments were performed as described previously (Eder, M. et al., Bioconj. Chem 2012, 23, 688-697) Briefly, the respective cells (10^5 per well) were incubated with the radioligand (^68Ga-labeled [Glu-urea-lys(Ahx)]2-HBED-CC (Schafer, M. et al., EJNMMI Res. 2012; 2, 23) in the presence of 12 different concentrations of analyte (0-5000 nM, 100 μL/well). After incubation, washing was carried out using a multiscreen vacuum manifold (Millipore, Billerica, Mass.). Cell-bound radioactivity was measured using a gamma counter (Packard Cobra II, GMI, Minnesota, USA). The 50% inhibitory concentration (IC^50) was calculated by fitting the data using a nonlinear regression algorithm (GraphPad Software).
Experiments were performed three times. Reference is made to Table A below.

[1] = test system: mice bearing LNCaP tumor xenografts; assay: Dynamic microPET imaging; format: in vivo
Procedure: FIG. 9: PET imaging of PSMA-1001. Whole-body coronal microPET images of an athymic male nude mice bearing LNCaP tumor xenografts. The tumor-targeting efficacy and pharmacokinetic properties of ^18F-PSMA-1001 were evaluated by dynamic microPET scans. Approximately 15 MBq/mouse were injected. […] The values are expressed as mean SUV (standardized uptake values).
Whole-body coronal microPET images of an athymic male nude mice bearing LNCaP tumor xenografts. […] Approximately 15 MBq/mouse were injected. […] The values are expressed as mean SUV (standardized uptake values).
(§2) For in vivo experiments, 8 week old BALB/c nu/nu mice were subcutaneously inoculated into the right trunk with 5×10^6 LNCaP- or PC3-cells in 50% Matrigel. When the size of tumor was approximately 1 cm^3, the radiolabeled compound was injected via the tail vein (ca. 30 MBq, 60 pmol for μPET imaging; ca. 1 MBq, 60 pmol for organ distribution).
For the microPET studies, 10-25 MBq of the radiolabeled compounds in a volume of 0.15 mL (˜60 pmol) were injected via a lateral tail vein into mice bearing LNCaP tumor xenografts. The anesthetized animals (2% sevoflurane, Abbott, Wiesbaden, Germany) were placed in prone position into the Inveon small animal PET scanner (Siemens, Knoxville, Tenn., USA) to perform dynamic microPET scans and 20 min-static scans.

[2] = test system: BALB/c nu/nu mice bearing LNCaP tumor; assay: Organ distribution; format: in vivo; details: 1 h after injection, tail vein, 60 pmol, n=3
Procedure: as §2
The F-18 labeled compounds were injected via tail vein (1-2 MBq per mouse; 60 pmol). At 1 h after injection, the animals were sacrificed. Organs of interest were dissected, blotted dry, and weighed. The radioactivity was measured with a gamma counter (Packard Cobra II, GMI, Minnesota, USA) and calculated as % ID/g.

Organ distribution, Blood, Mean [2]	Organ distribution, Brain, Mean [2]	Organ distribution, Heart, Mean [2]	Organ distribution, Kidney, Mean [2]	Organ distribution, LNCaP Tumor, Mean [2]	Organ distribution, Liver, Mean [2]	Organ distribution, Lung, Mean [2]	Organ distribution, Muscle, Mean [2]	Organ distribution, Small intestine, Mean [2]	Organ distribution, Spleen, Mean [2]	Molecule	Internalized fraction (LNCaP cells)	Cell surface (LNCaP cells)	Internalised (LNCaP cells)	IC50 (PSMA)	Tumor standardized uptake value (SUVmean,BW) ([1]; LNCaP tumor xenograft, time not stated)	Uptake in the kidneys (microPET) ([1]; LNCaP xenograft mice)	Uptake in the liver (microPET) ([1]; LNCaP xenograft mice)
										O=C(O)CC[C@H](NC(=O)N[C@@H](CCCCNC(=O)[C@H](Cc1ccc2ccccc2c1)NC(=O)[C@H]1CC[C@H](CNC(=O)c2ccc([18F])nc2)CC1)C(=O)O)C(=O)O [PSMA-1001, (Glu)-(Urea)-((D)-Lys)-(2-Naphthylalanine)-(4-(Aminomethyl)cyclohexanecarboxylic acid)-FN]	26%	8.4 ± 1.9 % ID/10^5 cells	2.9 ± 0.3 % ID/10^5 cells	3 nM	0.5	increasing uptake in the kidneys	high uptake in the liver
										(Glu)-(Urea)-((D)-Lys)-(2-Naphthylalanine)-(4-(Aminomethyl)benzoic acid)-FN [PSMA-1003]	38%	11.7 ± 1.2 % ID/10^5 cells	7.1 ± 0.8 % ID/10^5 cells	3 nM			
2.02 % ID/g	0.07 % ID/g	0.25 % ID/g	32.37 % ID/g	3.4 % ID/g	3.02 % ID/g	0.65 % ID/g	0.25 % ID/g	8.49 % ID/g	1.96 % ID/g	O=C(O)CC[C@H](NC(=O)N[C@@H](CCCCNC(=O)[C@H](Cc1ccc2ccccc2c1)NC(=O)c1ccc(CNC(=O)c2ccc([18F])nc2)cc1)C(=O)O)C(=O)O [PSMA-1003, (Glu)-(Urea)-((D)-Lys)-(2-Naphthylalanine)-(4-(Aminomethyl)benzoic acid)-FN]							
										O=C(O)CCC(NC(=O)NC(CCCCNC(=O)C(Cc1ccc2ccccc2c1)NC(=O)c1ccc(CNC(=O)CO/N=C\C([18F])C(O)C(O)C(O)CO)cc1)C(=O)O)C(=O)O (stereo not shown) [PSMA-1005, (Glu)-(Urea)-(Lys)-(2Nal)-(Bn)-(Acetyl-FDG-Oxim)]	63%	1.1 ± 0.5 % ID/10^5 cells	0.7 ± 0.4 % ID/10^5 cells	7 nM			
